In ChEMBL document CHEMBL1201862, “PubChem BioAssay data set” (2004):
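Grown in 96-well plates, cells were treated for 48 hours with each compound at five concentrations. Insufficient inhibition: endpoint recorded as highest concentration tested. The concentration for 50% growth inhibition is given as GI50.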 Calls of active or inactive are those of the source. Cut-off read from the data, not from the text of the source: active = GI50 up to about 1.1 µM and inactive = higher.

What was measured:
Assay in all cases: growth of human tumour cells (NCI), 48 h
[1] = test system: HCT-116
[2] = test system: HCT-15
[3] = test system: HT-29
[4] = test system: IGROV-1
[5] = test system: K562
[6] = test system: MOLT-4
[7] = test system: Malme-3M
[8] = test system: NCI-H23
[9] = test system: NCI-H522
[10] = test system: OVCAR-8
[11] = test system: RPMI-8226
[12] = test system: SF-295
[13] = test system: SK-MEL-28
[14] = test system: SK-MEL-2
[15] = test system: SK-MEL-5
[16] = test system: SNB-19
[17] = test system: U-251
[18] = test system: MDA-MB-231
[19] = test system: MDA-MB-435
[20] = test system: PC-3

SMILES | GI50 [1] | GI50 [2] | GI50 [3] | GI50 [4] | GI50 [5] | GI50 [6] | GI50 [7] | GI50 [8] | GI50 [9] | GI50 [10] | GI50 [11] | GI50 [12] | GI50 [13] | GI50 [14] | GI50 [15] | GI50 [16] | GI50 [17] | GI50 [18] | GI50 [19] | GI50 [20]
Cc1ccc(C2CC(c3ccco3)=NN2c2ccccc2)o1 (configuration not stated) | > 100 µM (inactive) | > 100 µM | > 100 µM (inactive) | > 100 µM (inactive) | > 100 µM (inactive) | > 100 µM (inactive) | > 100 µM (inactive) | > 100 µM (inactive) | > 100 µM (inactive) | > 100 µM (inactive) | > 100 µM (inactive) | > 100 µM (inactive) | > 100 µM (inactive) | > 100 µM (inactive) | > 100 µM (inactive) | > 100 µM (inactive) | > 100 µM (inactive) |  |  | 
CN1CCC(c2c(O)cc(O)c3c(=O)cc(-c4ccccc4Cl)oc23)C(O)C1 (configuration not stated) | < 0.01 µM (active) | 0.057 µM | 0.156 µM (active) | 0.0735 µM (active) | 0.259 µM (active) | < 0.0108 µM (active) | 0.203 µM (active) | 0.0557 µM (active) | 0.136 µM (active) | 0.0352 µM (active) | < 0.01 µM (active) | < 0.0253 µM (active) | 0.0735 µM (active) | 0.0323 µM (active) | 0.0344 µM (active) | 0.0526 µM (active) | 0.0615 µM (active) |  |  | 
CCOc1ccc(/C=C/c2cc(OC)c(OC)c(OC)c2)cc1 | 0.561 µM (active) | 0.869 µM | 0.653 µM (active) | 2.19 µM (inactive) | 0.458 µM (active) | 1.37 µM (inactive) | 0.893 µM (active) | 2.92 µM (inactive) | 0.429 µM (active) | 3.9 µM (inactive) | 0.601 µM (active) | 0.346 µM (active) | 0.83 µM (active) | 1.23 µM (inactive) | 0.556 µM (active) | 4.36 µM (inactive) | 0.867 µM (active) |  |  | 
COC(=O)C1CC(c2ccc(Cl)cc2)=NO1 (configuration not stated) | > 100 µM (inactive) | > 100 µM | > 100 µM (inactive) | > 100 µM (inactive) | > 100 µM (inactive) | > 100 µM (inactive) | > 100 µM (inactive) | > 100 µM (inactive) | > 100 µM (inactive) | > 100 µM (inactive) | > 100 µM (inactive) | > 100 µM (inactive) | > 100 µM (inactive) | > 100 µM (inactive) | > 100 µM (inactive) |  | > 100 µM (inactive) |  |  | 
O=C1C2c3[nH]c4ccccc4c3C3CCCCCC3C2C(=O)N1c1ccccc1 (configuration not stated) | 11.2 µM (inactive) | > 47 µM | > 57.7 µM (inactive) | 21.8 µM (inactive) | > 55 µM (inactive) | 16 µM (inactive) | 9.31 µM (inactive) | > 49.8 µM (inactive) | 37.7 µM (inactive) | 11.8 µM (inactive) | > 100 µM (inactive) | 11 µM (inactive) | > 59.8 µM (inactive) | 22.9 µM (inactive) | > 100 µM (inactive) | 25.8 µM (inactive) | 18.7 µM (inactive) |  |  | 
COc1ccc(CNc2nc3cc(C(F)(F)F)ccc3nc2C(=O)O)cc1OC | 29 µM (inactive) | 29.4 µM | 35.6 µM (inactive) | 12.2 µM (inactive) | 24.4 µM (inactive) | 22.8 µM (inactive) |  | 33.4 µM (inactive) |  | 42.6 µM (inactive) | 28.1 µM (inactive) | 34 µM (inactive) | 67 µM (inactive) | 23.2 µM (inactive) | 20.8 µM (inactive) | 29.6 µM (inactive) | 24.3 µM (inactive) | 32.5 µM (inactive) | 26.7 µM (inactive) | 27.5 µM (inactive)
CN(C)CC(NC(NCS)C(=O)NCCNc1ccc(NCCNC(=O)C(NCS)NC(CN(C)C)OCCl)c2c1C(=O)c1c(O)ccc(O)c1C2=O)OCCl (configuration not stated) | 0.0249 µM (active) | 0.13 µM | 0.0261 µM (active) | 0.145 µM (active) | 0.00678 µM (active) |  | 0.0605 µM (active) | 0.00877 µM (active) |  | 0.00377 µM (active) | 0.0016 µM (active) | 0.00518 µM (active) | 0.0229 µM (active) | 1.45 µM (inactive) | 0.113 µM (active) | 0.0301 µM (active) | 0.102 µM (active) | 0.0547 µM (active) | 0.151 µM (active) | 0.256 µM (active)
C/C(CN1C(=O)c2ccccc2C1=O)=N\NS(=O)(=O)c1ccc2ccccc2c1 | > 100 µM (inactive) | > 100 µM | > 100 µM (inactive) | > 100 µM (inactive) | > 100 µM (inactive) | > 100 µM (inactive) | > 100 µM (inactive) | > 100 µM (inactive) | 57.7 µM (inactive) | > 100 µM (inactive) | > 100 µM (inactive) | > 100 µM (inactive) | > 100 µM (inactive) | > 100 µM (inactive) | > 100 µM (inactive) | > 100 µM (inactive) | > 100 µM (inactive) |  |  | 
